Measurements as given in ChEMBL document CHEMBL1141459, “Kv7 (KCNQ) channel modulators and neuropathic pain” (J Med Chem, 2007).
pEC50: −log10 of the molar value.

Tests used:
Rattus norvegicus [1] = test: Analgesic activity in SNL nerve injury in iv dosed rat model; format: functional; conditions: for minimal effective dose: Rattus norvegicus, iv, read-out: MED
Rattus norvegicus [2] = test: Analgesic activity in carrageenan model in po dosed rat model; format: functional; conditions: read-out: MED
Rattus norvegicus [3] = test: Analgesic activity in SNL nerve injury in po dosed rat model; format: functional
Rattus norvegicus [4] = test: Analgesic activity in CCI and SNL nerve injury in po dosed rat model of pain; format: functional; conditions: read-out: MED
Rattus norvegicus [5] = species: Rattus norvegicus; test: Toxicity in rat by rotarod test; format: organism-based; conditions: in vivo
[6] = biological target: Potassium voltage-gated channel subfamily KQT member 2 (Homo sapiens, UniProt O43526); test: Activity at Kv 7.2 channel expressed in cloned CHO cells by [86Rb] efflux assay; format: cell-based
Potassium voltage-gated channel subfamily KQT member 2, sequence (O43526 whole entry): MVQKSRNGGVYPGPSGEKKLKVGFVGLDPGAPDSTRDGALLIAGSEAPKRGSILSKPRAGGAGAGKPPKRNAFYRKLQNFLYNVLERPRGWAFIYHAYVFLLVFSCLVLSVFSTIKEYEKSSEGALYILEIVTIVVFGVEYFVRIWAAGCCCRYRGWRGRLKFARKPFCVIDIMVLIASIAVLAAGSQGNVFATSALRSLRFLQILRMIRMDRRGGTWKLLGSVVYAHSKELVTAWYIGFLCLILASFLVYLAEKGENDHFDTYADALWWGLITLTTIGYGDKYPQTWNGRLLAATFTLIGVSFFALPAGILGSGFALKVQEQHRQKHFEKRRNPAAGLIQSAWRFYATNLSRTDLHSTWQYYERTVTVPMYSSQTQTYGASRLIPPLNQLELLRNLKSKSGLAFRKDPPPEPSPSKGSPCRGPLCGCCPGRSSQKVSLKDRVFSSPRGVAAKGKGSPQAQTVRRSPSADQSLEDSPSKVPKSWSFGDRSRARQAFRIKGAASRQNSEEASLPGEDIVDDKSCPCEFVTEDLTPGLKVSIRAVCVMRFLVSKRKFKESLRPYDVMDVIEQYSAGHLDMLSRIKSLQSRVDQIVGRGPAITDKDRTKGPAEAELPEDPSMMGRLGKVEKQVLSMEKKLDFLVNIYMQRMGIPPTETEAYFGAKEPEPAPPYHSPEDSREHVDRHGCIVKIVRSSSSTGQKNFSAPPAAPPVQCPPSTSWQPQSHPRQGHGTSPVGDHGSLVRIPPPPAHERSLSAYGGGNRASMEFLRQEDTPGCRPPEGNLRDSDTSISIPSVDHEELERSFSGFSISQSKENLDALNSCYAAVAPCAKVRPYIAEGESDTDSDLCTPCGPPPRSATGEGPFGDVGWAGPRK

Rattus norvegicus [7] = test: Analgesic activity in formalin-induced pain hypersensitivity in po dosed rat; format: functional
[8] = Therapeutic index, ratio of ED50 in rotor rod test in rat to ED50 in rat kindling model of epileptic seizures; conditions: read-out: TI
[9] = Activity at Kv.7 channel expressed in cloned CHO cells by patch clamp method; format: cell-based
Rattus norvegicus [10] = test: Analgesic activity in formalin-induced pain hypersensitivity in ip dosed rat; format: functional
[11] = Therapeutic index, ratio of ED50 in rotor rod test in rat to ED50 in rat spinal nerve ligation model of neuropathic pain; format: organism-based; conditions: in vivo, read-out: TI
Rattus norvegicus [12] = species: Rattus norvegicus; test: Analgesic activity in streptozotocin-induced diabetic rat model of pain; format: functional; conditions: read-out: MED

## CC(NC(=O)c1sc(-c2ccccc2F)nc1C(F)(F)F)c1cccc(-c2cccc(OC(F)(F)F)c2)c1 (stereo unspecified)
Rattus norvegicus [1]
  MED: 10 mg/kg
  minimal effective dose: 10 mg/kg

## O=C(Nc1ccc(Cl)nc1)c1ccc(F)c(F)c1
Rattus norvegicus [2]
  minimal effective dose: 30 mg/kg
Rattus norvegicus [3]
  ED50: 25 mg/kg

## C[C@H](NC(=O)/C=C/c1ccccc1F)c1cccc(-n2cccn2)c1
Rattus norvegicus [1]
  minimal effective dose: 10 mg/kg

## C[C@H](NC(=O)/C=C/c1ccccc1F)c1cccc(Oc2cccnc2)c1
Rattus norvegicus [1]
  minimal effective dose: 10 mg/kg

## CCOC(=O)Nc1ccc(NCc2ccc(F)cc2)cc1N [EZOGABINE]
Rattus norvegicus [4]
  minimal effective dose: 10 mg/kg
Rattus norvegicus [5]
  ED50: 40 mg/kg
[6]
  pEC50: > 6.82
Rattus norvegicus [7]
  ED50: 47.6 mg/kg
[8]
  selectivity ratio: 4
[9]
  pEC50: 6.00
Rattus norvegicus [10]
  ED50: 6.6 mg/kg
[11]
  selectivity ratio: 1.6

## C[C@H](NC(=O)/C=C/c1ccc(F)cc1)c1ccc(F)c(N2CCOCC2)c1
Rattus norvegicus [1]
  minimal effective dose: 10 mg/kg
Rattus norvegicus [12]
  minimal effective dose: 10 mg/kg
